Data set [1] concerns Clostridioides difficile. Description: Antibacterial activity against Clostridium difficile NSW132 RT027 incubated for 2 to 4 hrs in pre-reduced brucella broth supplemented with haemin/vitamin K and further incubation in anaerobic condition for 48 hrs. The class given is functional.
In data set [2] the test system is Staphylococcus aureus. Description: Growth inhibition of methicillin-resistant Staphylococcus aureus ATCC 43300 incubated for 18 hrs. In kind it is organism-based.
Data set [3] has as its system Clostridioides difficile. Nature of the data set: Antibacterial activity against Clostridium difficile ATCC 700057 incubated for 2 to 4 hrs in pre-reduced brucella broth supplemented with haemin/vitamin K and further incubation in anaerobic condition for 48 hrs. The class given is functional.
The test system of the next data set is Streptococcus pneumoniae. Nature of the data set: Growth inhibition of Streptococcus pneumoniae ATCC 49619 incubated in MHB medium with lysed horse blood and 5% CO2 for 24 hrs. In kind it is organism-based.
The nature of data set [4]: Cytotoxicity against HEK293 cells assessed as decrease in cell viability after 20 hrs by resazurin dye-based fluorescence assay. As to conditions: human.
For another data set, the system named is Acinetobacter baumannii. Description: Growth inhibition of Acinetobacter baumannii ATCC 19606 incubated for 18 hrs without shaking by absorbance based monochromator plate reader analysis. In kind it is organism-based, ATCC 19606 = CIP 70.34 = JCM 6841. As to conditions: in vitro.
The test system of a further data set is Pseudomonas aeruginosa. Description: Growth inhibition of Pseudomonas aeruginosa ATCC 27853 incubated for 18 hrs. In kind it is organism-based.
For another data set, the system named is Enterococcus faecalis. Nature of the data set: Growth inhibition of Enterococcus faecalis ATCC 29212 incubated in MHB broth for 24 hrs. The class given is organism-based.
For data set [5], the system named is Staphylococcus aureus. Nature of the data set: Growth inhibition of Staphylococcus aureus ATCC 29213 incubated in MHB broth for 24 hrs. In kind it is organism-based.
The test system of the next data set is Klebsiella pneumoniae. Nature of the data set: Growth inhibition of Klebsiella pneumoniae ATCC 700603 incubated for 18 hrs. The class given is organism-based.
The next data set relates to Escherichia coli. Description: Growth inhibition of Escherichia coli ATCC 25922 incubated for 18 hrs. In kind it is organism-based.

For 6 compounds, MIC and CC50 results are on record in ChEMBL document CHEMBL4393656, “Cationic biaryl 1,2,3-triazolyl peptidomimetic amphiphiles targeting Clostridioides (Clostridium) difficile: Synthesis, antibacterial evaluation and an in vivo C. difficile infection model” (Eur J Med Chem, 2019).

Regarding `CC(C)CCOc1ccc2ccccc2c1-c1c(OCc2cn([C@H](CCCCN)C(=O)N[C@H](CCCNC(=N)N)C(=O)NCc3ccccc3)nn2)ccc2ccccc12.Cl.Cl`, the MIC against Clostridioides difficile [1] came out at 16 µg/mL; with Staphylococcus aureus [2], 4 µg/mL; against Clostridioides difficile [3], 16 µg/mL; in the data set with Streptococcus pneumoniae, 8 µg/mL; against Acinetobacter baumannii, 32 µg/mL; with Pseudomonas aeruginosa, 32 µg/mL. The MIC against Enterococcus faecalis was 8 µg/mL; in the data set with Staphylococcus aureus [5], 8 µg/mL; in the data set with Klebsiella pneumoniae it was 32 µg/mL; in the data set on Escherichia coli, > 32 µg/mL. Further, in data set [4], the CC50 (commonly the concentration that lowers cell viability or growth by half) at 20 h amounted to 17.4 µg/mL.
For the compound `CCCN(CC1CC1)C(=O)[C@@H](CCCNC(=N)N)n1cc(COc2ccccc2-c2ccccc2OCCC(C)C)nn1.Cl`, the MIC with Clostridioides difficile [1] was 16 µg/mL; with Staphylococcus aureus [2], 8 µg/mL; against Clostridioides difficile [3], 16 µg/mL; against Streptococcus pneumoniae, 2 µg/mL; with Acinetobacter baumannii, > 32 µg/mL; with Pseudomonas aeruginosa it was > 32 µg/mL. Further, the MIC was 4 µg/mL in the data set with Enterococcus faecalis, 4 µg/mL in the data set on Staphylococcus aureus [5], > 32 µg/mL with Klebsiella pneumoniae and > 32 µg/mL in the data set on Escherichia coli. In data set [4], the CC50 at 20 h came out at 19.7 µg/mL.
With `CC(C)CCOc1ccc2ccccc2c1-c1c(OCc2cn([C@H](CCCNC(=N)N)C(=O)N[C@H](CCCCN)Cn3cc(CCc4ccccc4)nn3)nn2)ccc2ccccc12.Cl.Cl`, the MIC with Clostridioides difficile [1] amounted to 16 µg/mL; against Staphylococcus aureus [2], 4 µg/mL; in the data set on Clostridioides difficile [3] it was 16 µg/mL; in the data set on Streptococcus pneumoniae, 2 µg/mL; against Acinetobacter baumannii, 32 µg/mL; against Pseudomonas aeruginosa it was 32 µg/mL. The MIC against Enterococcus faecalis is 4 µg/mL; against Staphylococcus aureus [5] it was 4 µg/mL; in the data set on Klebsiella pneumoniae, > 32 µg/mL; in the data set on Escherichia coli it was > 32 µg/mL. Moreover, the CC50 at 20 h in data set [4] is > 32 µg/mL.
As for `CC(C)CCOc1ccccc1-c1ccccc1OCc1cn([C@H](CCCNC(=N)N)C(=O)Nc2ccccc2)nn1.Cl`, the MIC in the data set with Clostridioides difficile [1] is 32 µg/mL; against Staphylococcus aureus [2] it was 8 µg/mL; against Clostridioides difficile [3], 16 µg/mL; in the data set with Streptococcus pneumoniae, 2 µg/mL; against Acinetobacter baumannii, > 32 µg/mL; against Pseudomonas aeruginosa it was > 32 µg/mL. The MIC is 2 µg/mL in the data set with Enterococcus faecalis, 2 µg/mL in the data set on Staphylococcus aureus [5], > 32 µg/mL against Klebsiella pneumoniae and > 32 µg/mL in the data set with Escherichia coli. Also, the CC50 at 20 h in data set [4] came to 21.6 µg/mL.
On to `CC(C)CCOc1ccccc1-c1ccccc1OCc1cn([C@H](CCCNC(=N)N)C(=O)NCC2CCCCC2)nn1.Cl`, for which the MIC against Clostridioides difficile [1] was 64 µg/mL; against Staphylococcus aureus [2] it was 4 µg/mL; in the data set on Clostridioides difficile [3], 32 µg/mL; against Streptococcus pneumoniae, 8 µg/mL; in the data set with Acinetobacter baumannii, > 32 µg/mL; with Pseudomonas aeruginosa it was > 32 µg/mL. The MIC was 8 µg/mL against Enterococcus faecalis, 4 µg/mL in the data set on Staphylococcus aureus [5], > 32 µg/mL in the data set on Klebsiella pneumoniae and > 32 µg/mL against Escherichia coli. In data set [4], the CC50 at 20 h was 16.9 µg/mL.
Consider `CC(C)CCOc1ccccc1-c1ccccc1OCc1cn([C@H](CCCCN)C(=O)NCCc2ccccc2)nn1.Cl`, for which the MIC against Clostridioides difficile [1] was 32 µg/mL; against Staphylococcus aureus [2], 8 µg/mL; in the data set on Clostridioides difficile [3], 32 µg/mL; against Streptococcus pneumoniae, 8 µg/mL; with Acinetobacter baumannii, 32 µg/mL; with Pseudomonas aeruginosa, > 32 µg/mL. For the same compound, the MIC was 8 µg/mL in the data set with Enterococcus faecalis, 8 µg/mL in the data set on Staphylococcus aureus [5], > 32 µg/mL against Klebsiella pneumoniae and > 32 µg/mL against Escherichia coli. For the same compound, in data set [4], the CC50 at 20 h is > 32 µg/mL.
